The target in this assay is T1, HCV polymerase (Hepatitis C virus genotype 1b, UniProt P26663).
T1 construct: 2.5 pmoles (0.15 μg) HCV polymerase protein in a final volume of 75 μL
Kind of assay: HCV polymerase primer/template-directed transcription assay (32P-GTP incorporation, filter binding). The assay is classed as biochemical. Particulars: recombinant HCV polymerase; 30 minutes at 30° C.; concentration giving 50% inhibition of polymerase-directed transcription; read-out: IC50. In short, it runs like this:
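Recombinant genotype 1b polymerase (30 nM) extended biotin-dG12 primer on poly(rC)300 template with 1 μM GTP plus α-32P-GTP, pH 7.2, 10 mM MgCl2, 30 min at 30° C, 1% DMSO final. Products captured on DE filters and counted. IC50 fitted from triplicate cpm, with a tight-binding correction applied below 200 nM.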

Structures are written as SMILES.

T1 sequence (P26663 2420-3010): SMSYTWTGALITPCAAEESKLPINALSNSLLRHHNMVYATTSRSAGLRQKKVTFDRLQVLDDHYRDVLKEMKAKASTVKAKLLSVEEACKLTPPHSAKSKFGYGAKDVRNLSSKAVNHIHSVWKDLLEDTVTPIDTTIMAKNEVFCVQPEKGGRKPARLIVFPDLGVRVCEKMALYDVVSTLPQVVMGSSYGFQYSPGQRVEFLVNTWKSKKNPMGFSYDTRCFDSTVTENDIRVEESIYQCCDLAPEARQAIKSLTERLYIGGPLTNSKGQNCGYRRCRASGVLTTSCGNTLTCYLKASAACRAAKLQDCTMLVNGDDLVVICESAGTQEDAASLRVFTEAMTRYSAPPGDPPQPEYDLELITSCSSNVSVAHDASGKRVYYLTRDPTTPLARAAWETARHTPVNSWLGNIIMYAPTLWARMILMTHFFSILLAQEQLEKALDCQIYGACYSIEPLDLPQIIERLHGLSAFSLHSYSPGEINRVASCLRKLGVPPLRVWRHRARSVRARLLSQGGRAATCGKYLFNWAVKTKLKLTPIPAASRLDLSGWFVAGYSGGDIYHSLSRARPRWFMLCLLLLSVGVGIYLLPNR

As usually defined, the IC50 is the concentration needed to halve the response being measured. Turning to `CCc1cc(CCC2(C3CCCC3)CC(O)=C(Cc3nc4nc(C)cc(C)n4n3)C(=O)O2)c(OC)cc1O` (single isomer, unassigned) [A(154), 6-Cyclopentyl-3-(5,7-dimethyl-[1,2,4]triazolo[1,5-a]pyrimidin-2-ylmethyl)-6-[2-(5-ethyl-4-hydroxy-2-methoxy-phenyl)-ethyl]-4-hydroxy-5,6-dihydro-pyran-2-one], the IC50 amounted to 5 nM.
In the case of `CCC(C#N)(CC)c1ccc(CCC2(C3CCCC3)CC(=O)C(Cc3nc4nc(C)cc(C)n4n3)C(=O)O2)cc1F` (stereo not drawn) [A(112), 2-(4-{2-[2-Cyclopentyl-5-(5,7-dimethyl-[1,2,4]triazolo[1,5-a]pyrimidin-2-ylmethyl)-4,6-dioxo-tetrahydro-pyran-2-yl]-ethyl}-2-fluoro-phenyl)-2-ethyl-butyronitrile] it was 6 nM.
In the case of `Cc1cc(C)n2nc(SC3=C(O)CC(CCc4ccc(OC(C)C)c(F)c4)(C4CCCC4)OC3=O)nc2n1` (stereo not drawn) [C(07), 6-Cyclopentyl-3-(5,7-dimethyl-[1,2,4]triazolo[1,5-a]pyrimidin-2-ylsulfanyl)-6-[2-(3-fluoro-4-isopropoxy-phenyl)-ethyl]-4-hydroxy-5,6-dihydro-pyran-2-one] it was 19 nM; in that of `COc1ccc(CCC2(C3CCCC3)CC(=O)C(Cc3ccncc3)C(=O)O2)cc1Cl` (stereo not drawn) [B(82), 6-[2-(3-chloro-4-methoxyphenyl)ethyl]-6-cyclopentyl-3-(pyridin-4-ylmethyl)dihydro-2H-pyran-2,4(3H)-dione], 680 nM; in that of `COc1ccc(CCC2(C3CCCC3)CC(O)=C(Cc3nc4ccccc4c(=O)[nH]3)C(=O)O2)cc1Cl` (stereo not drawn) [B(55), 2-({6-[2-(3-Chloro-4-methoxyphenyl)ethyl]-6-cyclopentyl-4-hydroxy-2-oxo-5,6-dihydro-2H-pyran-3-yl}methyl)quinazolin-4(3H)-one], 150 nM.
With `COc1ccc(CCC2(C3CCCC3)CC(O)=C(Sc3ncnc4ccccc34)C(=O)O2)cc1Cl` (stereo not drawn) [C(68), 6-[2-(3-chloro-4-methoxyphenyl)ethyl]-6-cyclopentyl-4-hydroxy-3-(quinazolin-4-ylthio)-5,6-dihydro-2H-pyran-2-one] the figure was 200 nM; with `COc1cc(OC)c(CCC2(C3CCCC3)CC(O)=C(Cc3nc4cc(OC)c(OC)cc4c(=O)[nH]3)C(=O)O2)cc1Cl` (stereo not drawn) [B(63), 2-({6-[2-(5-Chloro-2,4-dimethoxyphenyl)ethyl]-6-cyclopentyl-4-hydroxy-2-oxo-5,6-dihydro-2H-pyran-3-yl}methyl)-6,7-dimethoxyquinazolin-4(3H)-one], 16 nM; with `COc1ccc(CCC2(C3CCCC3)CC(=O)C(Cc3nccn3C)C(=O)O2)cc1Cl` (stereo not drawn) [B(48), 6-[2-(3-chloro-4-methoxyphenyl)ethyl]-6-cyclopentyl-3-[(1-methyl-1H-imidazol-2-yl)methyl]dihydro-2H-pyran-2,4(3H)-dione], 700 nM.
As for `CCc1cc(CCC2(C3CCCC3)CC(O)=C(Cc3nc4ncc(C)cn4n3)C(=O)O2)ccc1OCCOC` (stereo not drawn) [A(185), 6-Cyclopentyl-6-{2-[3-ethyl-4-(2-methoxy-ethoxy)-phenyl]-ethyl}-4-hydroxy-3-(6-methyl-[1,2,4]triazolo[1,5-a]pyrimidin-2-ylmethyl)-5,6-dihydro-pyran-2-one], the IC50 was 8 nM.
With `COc1ccc(CCC2(C3CCCC3)CC(O)=C(Cc3nc4cc(Cl)ccc4n3C)C(=O)O2)cc1Cl` (stereo not drawn) [B(43), 6-[2-(3-chloro-4-methoxyphenyl)ethyl]-3-[(5-chloro-1-methyl-1H-benzimidazol-2-yl)methyl]-6-cyclopentyl-4-hydroxy-5,6-dihydro-2H-pyran-2-one] the figure was 360 nM.
In the case of `CCc1cc(CCC2(C3CCCC3)CC(O)=C(Cc3nc[nH]c3C)C(=O)O2)ccc1O` (stereo not drawn) [B(110), 6-Cyclopentyl-6-[2-(3-ethyl-4-hydroxy-phenyl)-ethyl]-4-hydroxy-3-(5-methyl-1H-imidazol-4-ylmethyl)-5,6-dihydro-pyran-2-one] it was 107 nM; in that of `Cc1cc(C)n2nc(CC3=C(O)CC(CCc4ccc(O)c(C5CCCC5)c4)(C4CCCC4)OC3=O)nc2n1` (stereo not drawn) [A(135), 6-cyclopentyl-6-[2-(3-cyclopentyl-4-hydroxyphenyl)ethyl]-3-[(5,7-dimethyl[1,2,4]triazolo[1,5-a]pyrimidin-2-yl)methyl]-4-hydroxy-5,6-dihydro-2H-pyran-2-one], 15 nM.
As to `O=C1CC(=O)OC(CCNC(=O)c2ccco2)(C2CCCC2)C1` (stereo not drawn) [H(2), Furan-2-carboxylic acid [2-(2-cyclopentyl-4,6-dioxo-tetrahydro-pyran-2-yl)-ethyl]-amide], the IC50 was found to be 51000 nM.
In the case of `CCc1cccc(CCC2(C3CCCC3)CC(=O)CC(=O)O2)c1` (single isomer, unassigned) [J(6), 6-Cyclopentyl-6-[2-(3-ethyl-phenyl)-ethyl]-dihydro-pyran-2,4-dione] it was 1200 nM; in that of `COc1cc(OC)c(CCC2(C3CCCC3)CC(O)=C(Sc3nc4ncccn4n3)C(=O)O2)cc1Cl` (stereo not drawn) [C(84)], 33 nM.
As for `O=C1CC(=O)OC(CCc2ccc(-c3cc4ccccc4s3)c(F)c2)(C2CCCC2)C1` (stereo not drawn) [A(10), 6-[2-(4-Benzo[b]thiophen-2-yl-3-fluoro-phenyl)-ethyl]-6-cyclopentyl-dihydro-pyran-2,4-dione], the IC50 stood at 8100 nM.
In the case of `CCc1ccc(O)c(CCC2(C3CCCC3)CC(O)=C(Cc3nc4nc(C)cc(C)n4n3)C(=O)O2)c1` (stereo not drawn) [A(166), 6-Cyclopentyl-3-(5,7-dimethyl-[1,2,4]triazolo[1,5-a]pyrimidin-2-ylmethyl)-6-[2-(5-ethyl-2-hydroxy-phenyl)-ethyl]-4-hydroxy-5,6-dihydro-pyran-2-one] it was 1 nM; in that of `CCc1cc(O)cc(CCC2(C3CCCC3)CC(O)=C(Cc3nc4nc(C)cc(C)n4n3)C(=O)O2)c1` (stereo not drawn) [A(186), 6-Cyclopentyl-3-(5,7-dimethyl-[1,2,4]triazolo[1,5-a]pyrimidin-2-ylmethyl)-6-[2-(3-ethyl-5-hydroxy-phenyl)-ethyl]-4-hydroxy-5,6-dihydro-pyran-2-one], 40 nM.
In the case of `COc1ccc(CCC2(C3CCCC3)CC(O)=C(Sc3nncn3C(C)C)C(=O)O2)cc1Cl` (stereo not drawn) [C(36), 6-[2-(3-chloro-4-methoxyphenyl)ethyl]-6-cyclopentyl-4-hydroxy-3-[(4-isopropyl-4H-1,2,4-triazol-3-yl)thio]-5,6-dihydro-2H-pyran-2-one] it was 79 nM; in that of `Cc1cnc2nc(CC3C(=O)CC(CCc4ccc(C(C)(C)C#N)c(F)c4)(C4CCCC4)OC3=O)nn2c1` (single isomer, unassigned; (+)) [A(109), (+)-2-(4-{2-[2-Cyclopentyl-5-(6-methyl-[1,2,4]triazolo[1,5-a]pyrimidin-2-ylmethyl)-4,6-dioxo-tetrahydro-pyran-2-yl]-ethyl}-2-fluoro-phenyl)-2-methyl-propionitrile], 4 nM.
With `CCc1cc(CCC2(C3CCCC3)CC(O)=C(Cc3nc4ncc(Cl)cn4n3)C(=O)O2)c(C)cc1O` (stereo not drawn) [A(160), 3-(6-Chloro-[1,2,4]triazolo[1,5-a]pyrimidin-2-ylmethyl)-6-cyclopentyl-6-[2-(5-ethyl-4-hydroxy-2-methyl-phenyl)-ethyl]-4-hydroxy-5,6-dihydro-pyran-2-one] the figure was 29 nM.

These data come from patent publication US7473790B2 (Pfizer Inc., priority 2003, dated 2009).
